Data as given in the NIST ThermoML archive (doi:10.1016/j.tca.2011.02.027).

Tests used:
[1] = Crystal; DTA
[2] = molar heat capacity at constant pressure; conditions: 101.33 kPa, Liquid, Large sample (1 g) DSC
[3] = molar heat capacity at constant pressure; xn = mol fraction of the nth substance listed; conditions: 101.3 kPa, Liquid, Large sample (1 g) DSC

CCCCn1cc[n+](C)c1C.F[B-](F)(F)F [1-butyl-2,3-dimethylimidazolium tetrafluoroborate]
Conditions	Normal melting temperature [°C]
[1]	32.00

[2]
Conditions	molar heat capacity at constant pressure [J/K/mol]
313.2 K	397.3
318.2 K	398.8
323.2 K	400.6
328.2 K	403.3
333.2 K	405.4
338.2 K	407.8
343.2 K	410.6
348.2 K	413.5
353.2 K	416.5
358.2 K	420.2
363.2 K	423.6
368.2 K	427.3
373.2 K	430.6
378.2 K	434.4
383.2 K	436.3

CCCCn1cc[n+](C)c1.[Cl-] [1-butyl-3-methylimidazolium chloride] + O
molar heat capacity at constant pressure [J/K/mol], [3]
Conditions	x1 = 0.2	x1 = 0.4	x1 = 0.6	x1 = 0.8	x1 = 1
303.2 K	125.6	170.2	218.6	272.6	–
308.2 K	126.7	171.6	220	274.4	–
313.2 K	127.7	173	221.8	276.3	–
318.2 K	128.6	174.5	223.9	279.3	–
323.2 K	129.9	176.2	225.9	280.9	–
328.2 K	130.9	177.6	228	282.9	–
333.2 K	131.8	179	230	285.5	–
338.2 K	133.1	180.5	232	288.2	–
343.2 K	133.8	182.2	234.1	290.5	337.2
348.2 K	135.2	183.6	236.4	293.1	340.3
353.2 K	136	185.9	238.6	296.3	343.3
358.2 K	–	–	–	–	347.1
363.2 K	–	–	–	–	350.6
368.2 K	–	–	–	–	354.3
373.2 K	–	–	–	–	357.6
378.2 K	–	–	–	–	361
383.2 K	–	–	–	–	364.3
388.2 K	–	–	–	–	367.4
393.2 K	–	–	–	–	370.7
398.2 K	–	–	–	–	374
403.2 K	–	–	–	–	376.8

CCCCn1cc[n+](C)c1C.F[B-](F)(F)F [1-butyl-2,3-dimethylimidazolium tetrafluoroborate] + O
molar heat capacity at constant pressure [J/K/mol], [3]
Conditions	x1 = 0.2	x1 = 0.4	x1 = 0.6	x1 = 0.8	x1 = 1
303.2 K	146.9	217.5	284.4	343	–
308.2 K	147.2	218.2	285.6	344.2	–
313.2 K	147.8	219.3	287	346.3	397.3
318.2 K	148.4	220.4	288.6	348.5	398.8
323.2 K	149.1	221.7	290.3	351	400.6
328.2 K	149.8	223.2	292.1	353.2	403.3
333.2 K	150.4	224.1	293.5	355.6	405.4
338.2 K	151.1	225.2	295.7	358.1	407.8
343.2 K	151.7	226.4	297.6	360.8	410.6
348.2 K	152.4	227.7	299.5	363.5	413.5
353.2 K	153.1	229.2	301.7	366.3	416.5
358.2 K	–	–	–	–	420.2
363.2 K	–	–	–	–	423.6
368.2 K	–	–	–	–	427.3
373.2 K	–	–	–	–	430.6
378.2 K	–	–	–	–	434.4
383.2 K	–	–	–	–	436.3

CCCCn1cc[n+](C)c1C.F[P-](F)(F)(F)(F)F [1-butyl-2,3-dimethylimidazolium hexafluorophosphate] + O
molar heat capacity at constant pressure [J/K/mol], [3]
Conditions	x1 = 0.8	x1 = 0.85	x1 = 0.9	x1 = 0.95	x1 = 1
303.2 K	387	396.4	407.2	418.3	–
308.2 K	389.2	398.4	409.4	420.5	–
313.2 K	391.2	400.5	411.9	423.3	–
318.2 K	393.4	402.7	414.5	426	–
323.2 K	395.9	405.5	417.7	429.4	439.3
328.2 K	398.9	408.8	421.3	433.2	442.9
333.2 K	401.8	411.9	424.7	436.7	446.2
338.2 K	404.5	414.9	428	440.1	449.4
343.2 K	407.5	417.9	431.2	443.5	452.7
348.2 K	411.1	421.7	435.2	447.6	457
353.2 K	414.1	424.8	438.3	450.9	460.1
358.2 K	–	–	–	–	464.4
363.2 K	–	–	–	–	468
368.2 K	–	–	–	–	471.6
373.2 K	–	–	–	–	475.1
378.2 K	–	–	–	–	478.9
383.2 K	–	–	–	–	482.6

CCCCn1cc[n+](C)c1C.F[P-](F)(F)(F)(F)F [1-butyl-2,3-dimethylimidazolium hexafluorophosphate]
Conditions	Normal melting temperature [°C]
[1]	38.00

[2]
Conditions	molar heat capacity at constant pressure [J/K/mol]
323.2 K	439.3
328.2 K	442.9
333.2 K	446.2
338.2 K	449.4
343.2 K	452.7
348.2 K	457
353.2 K	460.1
358.2 K	464.4
363.2 K	468
368.2 K	471.6
373.2 K	475.1
378.2 K	478.9
383.2 K	482.6

CCCCn1cc[n+](C)c1.[Cl-] [1-butyl-3-methylimidazolium chloride]
Conditions	Normal melting temperature [°C]
[1]	57.00

[2]
Conditions	molar heat capacity at constant pressure [J/K/mol]
343.2 K	337.2
348.2 K	340.3
353.2 K	343.3
358.2 K	347.1
363.2 K	350.6
368.2 K	354.3
373.2 K	357.6
378.2 K	361
383.2 K	364.3
388.2 K	367.4
393.2 K	370.7
398.2 K	374
403.2 K	376.8

CCCCn1cc[n+](C)c1.[Br-] [1-butyl-3-methylimidazolium bromide]
Conditions	Normal melting temperature [°C]
[1]	73.00

[2]
Conditions	molar heat capacity at constant pressure [J/K/mol]
353.2 K	334.8
358.2 K	338.1
363.2 K	341.1
368.2 K	344.6
373.2 K	347.5
378.2 K	350.6
383.2 K	354.1
388.2 K	356.7
393.2 K	359.9
398.2 K	363.4
403.2 K	366.4
